Test results taken from patent US20240327425A1, “KRAS G12D INHIBITOR AND USE THEREOF” (SHANGHAI DE NOVO PHARMATECH CO., LTD., priority 2021, published 2024).
Structures can show the parent of a compound that is named as a salt.

The compounds below were run against Human KRAS G12D His-tagged protein (Homo sapiens (Human), UniProt P01116, G12D) (assay: KRAS G12D binding assay (TR-FRET)). Conditions: GDP 20 nM, GTP-Red.
Procedure: The binding ability of the compound to KRAS G12D protein was detected by TR-FRET method, and the inhibitory activity of the compound on KRAS G12D protein was evaluated. Human KRAS G12D His-tagged (Cisbio, 63ADK000CB27PEG) protein was 100-fold diluted with PPI Eu detection buffer (Cisbio, 61DB9RBF), then 5 μL of which was added to a 384-well plate and centrifuged at 2000 rpm for 40 seconds. A 10 mM concentrated stock solution of the test compound was prepared with dimethyl sulfoxide, 3-fold serially diluted, then diluted to make a working solution (0.5% DMSO) with PPI Eu detection buffer, added to a 384-well plate at 5 μL/well, with the control group added with 0.5% dimethyl sulfoxide and the highest concentration of the test compound at 10 μM, and centrifuged at 2000 rpm for 40 seconds. An 80 nM GDP standard working solution (Cisbio, 63ADK000CB27PEG) was prepared with PPI Eu detection buffer and added to a 384-well plate at 5 μL/well, with the final concentration of GDP standard working solution at 20 nM. The plate was centrifuged at 2000 rpm for 40 seconds and reacted at room temperature for 30 minutes. 1×6His Eu cryptate antibody and GTP-Red reagent (Cisbio, 63ADK000CB27PEG) were prepared with PPI Eu detection buffer, mixed in a volume ratio of 1:1, 5 μL of which was then added to a 384-well plate, centrifuged at 2000 rpm for 40 seconds, and incubated at room temperature for 30 minutes. The fluorescence intensity at 620 nm and 665 nm was detected by a microplate reader, and the inhibitory activity of the compound on KRAS G12D protein was obtained by fitting a four-parameter equation.

| Compound | IC50 |
| --- | --- |
| CC(Oc1nc2c3c(c(Cl)c(-c4cccc5sc(N)c(C#N)c45)c(F)c3n1)OCC1C3CCC(CN21)N3)C12CCCN1CC(F)C2 [Compound I-17-1, 2-amino-4-((5aS,6S,9R)-3-chloro-1-fluoro-13-(1-((2R,7aS)-2-fluorohexahydro-1H-pyrrolizin-7a-yl)ethoxy)-5a,6,7,8,9,10-hexahydro-5H-6,9-epiminoazepino[2′,1′:3,4][1,4]oxazepino[5,6,7-de]quinazolin-2-yl)benzo[b]thiophene-3-carbonitrile] | 0.646 µM |
| 4-((5aS,6S,9R)-3-chloro-1-fluoro-13-(((2R,7aS)-2-fluorohexahydro-1H-pyrrolizin-7a-yl)methoxy)-5a,6,7,8,9,10-hexahydro-5H-6,9-epiminoazepino[2′,1′:3,4][1,4]oxazepino[5,6,7-de]quinazolin-2-yl)-1-(difluoromethyl)-1H-benzo[d]imidazol-2-amine ditrifluoroacetate [Compound I-23] | 0.217 µM |
| [2H]C([2H])(Oc1nc2c3c(c(Cl)c(-c4cccc5sc(N)c(C#N)c45)c(F)c3n1)OC[C@@H]1[C@@H]3CC[C@H](CN21)N3)[C@@]12CCCN1C[C@H](F)C2 (single isomer, unassigned) [Compound I-24-1] | 0.136 µM |
| C#Cc1cccc2cc(O)cc(-c3nc4c5c(nc(OC[C@@]67CCCN6C[C@H](F)C7)nc5c3F)N3C[C@@H]5CC[C@@H](N5)[C@@H]3CO4)c12 [Compound I-5, 5-ethynyl-4-((5aR,6R,9S)-1-fluoro-12-(((2R,7aS)-2-fluorohexahydro-1H-pyrrolizin-7a(5H)-yl)methoxy)-5a,6,7,8,9,10-hexahydro-5H-4-oxa-3,10a,11,13,14-pentaaza-6,9-methanonaphtho[1,8-ab]heptan-2-yl)naphthalen-2-ol ditrifluoroacetate] | 0.0254 µM |
| CC(Oc1nc2c3c(c(Cl)c(-c4cccc5sc(N)c(C#N)c45)c(F)c3n1)OC[C@H]1[C@@H]3CC[C@H](CN21)N3)[C@@]12CCCN1C[C@@H](F)C2 (stereo partly drawn) [Compound I-17-2, 2-amino-4-((5aS,6S,9R)-3-chloro-1-fluoro-13-(1-((2R,7aS)-2-fluorohexahydro-1H-pyrrolizin-7a-yl)ethoxy)-5a,6,7,8,9,10-hexahydro-5H-6,9-epiminoazepino[2′,1′:3,4][1,4]oxazepino[5,6,7-de]quinazolin-2-yl)benzo[b]thiophene-3-carbonitrile] | 0.0069 µM |
| Nc1nc2c(-c3c(Cl)c4c5c(nc(OC[C@@]67CCCN6C[C@H](F)C7)nc5c3F)N3C[C@H]5CC[C@H](N5)[C@H]3CO4)cccc2s1 (single isomer, unassigned) [Compound I-12-1] | 0.0303 µM |
| [2H]C1([2H])CC[C@@]2(C([2H])([2H])Oc3nc4c5c(c(Cl)c(-c6cccc7sc(N)c(C#N)c67)c(F)c5n3)OC[C@@H]3[C@@H]5CC[C@H](CN43)N5)C[C@@H](F)CN12 (single isomer, unassigned) [Compound I-27-1] | 0.212 µM |
| CN1CCC[C@@H]1COc1nc2c3c(c(Cl)c(-c4cccc5sc(N)c(C#N)c45)c(F)c3n1)OC[C@@H]1[C@@H]3CC[C@H](CN21)N3 [Compound I-29] | 0.0108 µM |
| Nc1nc2c(-c3c(Cl)c4c5c(nc(OC[C@@]67CCCN6C[C@H](F)C7)nc5c3F)N3C[C@H]5CC[C@H](N5)[C@H]3CO4)ccc(F)c2s1 (single isomer, unassigned) [Compound I-19-2] | 0.00463 µM |
| C#Cc1cccc2cc(O)cc(-c3nc4c5c(nc(OC[C@@]67CCCN6C[C@H](F)C7)nc5c3F)N3CC5CCC(N5)C3CO4)c12 (stereo partly drawn) [Compound I-1-1, 5-ethynyl-4-(1-fluoro-12-(((2R,7aS)-2-fluorohexahydro-1H-pyrrolizin-7a-yl)methoxy)-5a,6,7,8,9,10-hexahydro-5H-4-oxa-3,10a,11,13,14-pentaaza-6,9-methanonaphtho[1,8-ab]heptan-2-yl)naphthalen-2-ol] | 0.011 µM |
| N#Cc1c(N)nn2cccc(-c3c(Cl)c4c5c(nc(OC[C@@]67CCCN6C[C@H](F)C7)nc5c3F)N3C[C@H]5CC[C@H](N5)[C@H]3CO4)c12 [Compound I-13, 2-amino-4-((5aS,6S,9R)-3-chloro-1-fluoro-13-(((2R,7aS)-2-fluorohexahydro-1H-pyrrolizin-7a-yl)methoxy)-5a,6,7,8,9,10-hexahydro-5H-6,9-epiminoazepino[2′,1′:3,4][1,4]oxazepino[5,6,7-de]quinazolin-2-yl)pyrazolo[1,5-a]pyridine-3-carbonitrile] | 0.0325 µM |
| C#Cc1cccc2cc(O)cc(-c3nc4c5c(nc(OC[C@@]67CCCN6C[C@H](F)C7)nc5c3F)N3C[C@H]5CC[C@H](N5)[C@H]3CO4)c12 [Compound I-4, 5-ethynyl-4-((5aS,6S,9R)-1-fluoro-12-(((2R,7aS)-2-fluorohexahydro-1H-pyrrolizin-7a(5H)-yl)methoxy)-5a,6,7,8,9,10-hexahydro-5H-4-oxa-3,10a,11,13,14-pentaaza-6,9-methanonaphtho[1,8-ab]heptan-2-yl)naphthalen-2-ol ditrifluoroacetate] | 0.00272 µM |
| N#Cc1c(N)sc2c(F)ccc(-c3c(Cl)c4c5c(nc(OC[C@@]67CCCN6C[C@H](F)C7)nc5c3F)N3C[C@H]5CC[C@H](N5)[C@H]3CO4)c12 (single isomer, unassigned) [Compound I-11-2] | 0.0059 µM |
| Nc1cc2c(-c3c(Cl)c4c5c(nc(OC[C@@]67CCCN6C[C@H](F)C7)nc5c3F)N3C[C@H]5CC[C@H](N5)[C@H]3CO4)c(Cl)ccc2s1 [Compound I-15, 5-chloro-4-((5aS,6S,9R)-3-chloro-1-fluoro-13-(((2R,7aS)-2-fluorohexahydro-1H-pyrrolizin-7a-yl)methoxy)-5a,6,7,8,9,10-hexahydro-5H-6,9-epiminoazepino[2′,1′:3,4][1,4]oxazepino[5,6,7-de]quinazolin-2-yl)benzo[b]thiophen-2-amine ditrifluoroacetate] | 0.0381 µM |
| N#Cc1c(N)sc2c(F)ccc(-c3c(Cl)c4c5c(ncnc5c3F)N3C[C@H]5CC[C@H](N5)[C@H]3CO4)c12 (single isomer, unassigned) [Compound I-8-2] | 0.0604 µM |
| N#Cc1c(N)sc2cccc(-c3c(Cl)c4c5c(ncnc5c3F)N3C[C@H]5CC[C@H](N5)[C@H]3CO4)c12 (single isomer, unassigned) [Compound I-10-2] | 0.0758 µM |
| N#Cc1c(N)sc2cccc(-c3c(Cl)c4c5c(nc(OC[C@@]67CCCN6C[C@H](F)C7)nc5c3F)N3C[C@H]5CC[C@H](N5)[C@H]3CO4)c12 (single isomer, unassigned) [Compound I-7-1] | 0.186 µM |
| CC(Oc1nc2c3c(c(Cl)c(-c4c(F)ccc5sc(N)c(C#N)c45)c(F)c3n1)OC[C@@H]1[C@@H]3CC[C@H](CN21)N3)[C@@]12CCCN1C[C@H](F)C2 (stereo partly drawn) [Compound I-18, 2-amino-4-((5aS,6S,9R)-3-chloro-1-fluoro-13-(1-((2R,7aS)-2-fluorohexahydro-1H-pyrrolizin-7a-yl)ethoxy)-5a,6,7,8,9,10-hexahydro-5H-6,9-epiminoazepino[2′,1′:3,4][1,4]oxazepino[5,6,7-de]quinazolin-2-yl)-5-fluorobenzo[b]thiophene-3-carbonitrile ditrifluoroacetate] | 0.022 µM |
| Nc1n[nH]c2sc3cccc(-c4c(Cl)c5c6c(nc(OC[C@@]78CCCN7C[C@H](F)C8)nc6c4F)N4C[C@H]6CC[C@H](N6)[C@H]4CO5)c3c12 (single isomer, unassigned) [Compound I-26-2] | 0.011 µM |
| N#Cc1c(N)sc2cccc(-c3c(Cl)c4c5c(ncnc5c3F)N3CC5CCC(N5)C3CO4)c12 (stereo not drawn) [Compound I-6-2, 2-amino-4-(3-chloro-1-fluoro-5a,6,7,8,9,10-hexahydro-5H-6,9-epiminoazepino[2′,1′:3,4][1,4]oxazepino[5,6,7-de]quinazolin-2-yl)benzo[b]thiophene-3-carbonitrile (trans) trifluoroacetate] | 0.0536 µM |
| Nc1cc2cc(-c3c(Cl)c4c5c(nc(OC[C@@]67CCCN6C[C@H](F)C7)nc5c3F)N3C[C@H]5CC[C@H](N5)[C@H]3CO4)ccc2s1 [Compound I-16, 5-((5aS,6S,9R)-3-chloro-1-fluoro-13-(((2R,7aS)-2-fluorohexahydro-1H-pyrrolizin-7a-yl)methoxy)-5a,6,7,8,9,10-hexahydro-5H-6,9-epiminoazepino[2′,1′:3,4][1,4]oxazepino[5,6,7-de]quinazolin-2-yl)benzo[b]thiophen-2-amine ditrifluoroacetate] | 0.024 µM |
